Measured values taken from patent US20250059185A1 (Hoffmann-La Roche Inc., priority 2021, published 2025).
Where a name gives a salt, the structure may show the parent alone.

Target: MAGL (Homo sapiens (Human), UniProt Q99685)
Assay: 2-AG assay (MAGL inhibitory activity, hydrolysis of 2-arachidonoylglycerol followed by mass spectrometry)
Assay type: biochemical
Conditions: 50 pM MAGL protein, 15 min pre-incubation, 30 min incubation at RT
Source text: Compounds of formula (II) were profiled for MAGL inhibitory activity by determining the enzymatic activity by following the hydrolysis of the natural substrate 2-arachidonoylglycerol (2-AG) resulting in arachidonic acid, which can be followed by mass spectrometry. This assay is hereinafter abbreviated “2-AG assay”.
Compounds of formula (II) were profiled for MAGL inhibitory activity by determining the enzymatic activity by following the hydrolysis of the natural substrate 2-arachidonoylglycerol (2-AG) resulting in arachidonic acid, which can be followed by mass spectrometry. This assay is hereinafter abbreviated “2-AG assay”. The 2-AG assay was carried out in 384 well polypropylene assay plates. Compound dilutions were made in 100% DMSO in a polypropylene plate in 3-fold dilution steps to give a final concentration range in the assay from 12.5 μM to 0.8 pM. Compound dilutions were added to MAGL protein in assay buffer (50 mM TRIS, 1 mM EDTA, 0.01% (v/v) Tween-20, 2.5% (v/v) DMSO). After shaking, the plate was incubated for 15 min at RT. To start the reaction, 2-arachidonoylglycerol in assay buffer was added. The final concentrations in the assay was 50 pM for MAGL protein and […] 2-arachidonoylglyerol. After shaking and 30 min incubation at RT, the reaction was quenched by the addition of two assay volumes of acetonitrile containing 4 μM of d8-arachidonic acid. The amount of arachidonic acid formed was traced by an online SPE system (Agilent Rapidfire) coupled to a triple quadrupole mass spectrometer. A C18 SPE cartridge (Agilent G9205A) was used in an acetonitrile/water liquid setup. The mass spectrometer was operated in negative electrospray mode following the mass transitions 303.1→259.1 for arachidonic acid and 311.1→267.0 for d8-arachidonic acid. The activity of the compounds was calculated based on the ratio of intensities [arachidonic acid/d8-arachidonic acid].

Sequence of MAGL (Q99685 whole entry, species assumed): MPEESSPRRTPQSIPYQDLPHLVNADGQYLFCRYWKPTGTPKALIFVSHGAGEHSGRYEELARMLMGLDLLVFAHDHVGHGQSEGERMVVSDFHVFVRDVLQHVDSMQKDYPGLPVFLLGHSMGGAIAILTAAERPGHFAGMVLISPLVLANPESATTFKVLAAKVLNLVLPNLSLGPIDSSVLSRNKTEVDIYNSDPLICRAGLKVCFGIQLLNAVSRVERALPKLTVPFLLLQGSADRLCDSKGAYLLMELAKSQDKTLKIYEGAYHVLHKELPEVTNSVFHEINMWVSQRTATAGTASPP

Row | SMILES | IC50 [nM]
1 | CC1c2nn(C)c(-c3cc(F)cc(F)c3)c2CCN1C(=O)c1cc(F)cc(C2=NOC(C)(C)C2)c1Cl (stereo not drawn) [Example 28, [2-Chloro-3-(5,5-dimethyl-4H-isoxazol-3-yl)-5-fluoro-phenyl]-[3-(3,5-difluorophenyl)-2,7-dimethyl-5,7-dihydro-4H-pyrazolo[3,4-c]pyridin-6-yl]methanone] | 385
2 | C[C@H]1c2nn(C)c(-c3cc(F)cc(F)c3)c2CCN1C(=O)c1ccc(CCC2CNC(=O)C2)cc1Cl (stereo in doubt) [Example 47, 4-[2-[3-Chloro-4-[3-(3,5-difluorophenyl)-2,7-dimethyl-5,7-dihydro-4H-pyrazolo[3,4-c]pyridine-6-carbonyl]phenyl]ethyl]pyrrolidin-2-one] | 127
3 | C[C@H]1c2nn(C)c(-c3cc(F)cc(F)c3)c2CCN1C(=O)c1cc(F)cc(-c2c[nH]c(C#N)c2)c1Cl [Example 36, 4-[2-Chloro-3-[(7S)-3-(3,5-difluorophenyl)-2,7-dimethyl-5,7-dihydro-4H-pyrazolo[3,4-c]pyridine-6-carbonyl]-5-fluoro-phenyl]-1H-pyrrole-2-carbonitrile] | 17
4 | CC1c2nn(C)c(-c3cc(F)cc(F)c3)c2CCN1C(=O)c1ccccc1Cn1ccnn1 (stereo not drawn) [Example 24, [3-(3,5-Difluorophenyl)-2,7-dimethyl-5,7-dihydro-4H-pyrazolo[3,4-c]pyridin-6-yl]-[2-(triazol-1-ylmethyl)phenyl]methanone] | 1230
5 | C[C@@H]1c2nn(C)c(-c3cc(F)cc(F)c3)c2CCN1C(=O)c1cc(F)cc(N2CC3(C2)CS(=O)(=O)C3)c1Cl [Example 21, [2-Chloro-3-(2,2-dioxo-2λ^6-thia-6-azaspiro[3.3]heptan-6-yl)-5-fluoro-phenyl]-[(7R)-3-(3,5-difluorophenyl)-2,7-dimethyl-5,7-dihydro-4H-pyrazolo[3,4-c]pyridine-6-yl]methanone] | 1430
6 | COc1cccc(C(=O)N2CCc3c(nn(C)c3-c3cc(Cl)cc(CS(C)(=O)=O)c3)[C@@H]2C)c1Cl [Example 6, (2-Chloro-3-methoxy-phenyl)-[(7S)-3-[3-chloro-5-(methylsulfonylmethyl)phenyl]-2,7-dimethyl-5,7-dihydro-4H-pyrazolo[3,4-c]pyridin-6-yl]methanone] | 84
7 | C[C@H]1c2nn(C)c(-c3cc(F)cc(F)c3)c2CCN1C(=O)c1ncn(-c2cccnc2O)n1 [Example 32, [(7S)-3-(3,5-Difluorophenyl)-2,7-dimethyl-5,7-dihydro-4H-pyrazolo[3,4-c]pyridin-6-yl]-[1-(2-hydroxy-3-pyridyl)-1,2,4-triazol-3-yl]methanone] | 232
8 | C[C@H]1c2nn(C)c(-c3cc(F)cc(F)c3)c2CCN1C(=O)c1ncn(-c2ccc(O)nc2)n1 [Example 33, [(7S)-3-(3,5-Difluorophenyl)-2,7-dimethyl-5,7-dihydro-4H-pyrazolo[3,4-c]pyridin-6-yl]-[1-(6-hydroxy-3-pyridyl)-1,2,4-triazol-3-yl]methanone] | 163
9 | C[C@@H]1c2nn(C)c(-c3cc(F)cc(F)c3)c2CCN1C(=O)c1ccnc(OCC2CNC(=O)O2)c1Cl (stereo partly drawn) [Example 43, 5-[[3-Chloro-4-[(7R)-3-(3,5-difluorophenyl)-2,7-dimethyl-5,7-dihydro-4H-pyrazolo[3,4-c]pyridine-6-carbonyl]-2-pyridyl]oxymethyl]oxazolidin-2-one] | 1340
10 | COc1cccc(C(=O)N2CCc3c(nn(C)c3-c3cncc(S(C)(=O)=O)c3)[C@@H]2C)c1Cl [Example 10, (2-Chloro-3-methoxy-phenyl)-[(7S)-2,7-dimethyl-3-(5-methylsulfonyl-3-pyridyl)-5,7-dihydro-4H-pyrazolo[3,4-c]pyridin-6-yl]methanone] | 4870
11 | COc1cccc(C(=O)N2CCc3c(nn(C)c3CNC3(C(F)(F)F)CC3)[C@@H]2C)c1Cl [Example 11, (2-Chloro-3-methoxy-phenyl)-[(7S)-2,7-dimethyl-3-[[[1-(trifluoromethyl)cyclopropyl]amino]methyl]-5,7-dihydro-4H-pyrazolo[3,4-c]pyridin-6-yl]methanone] | 464

The remaining lines, values ahead:

Row | IC50 [nM] | SMILES
12 | 8.15 | CC1c2nn(C)c(-c3cc(Cl)cc(C4(NS(C)(=O)=O)CC4)c3)c2CCN1C(=O)c1cc(F)cc(CCc2c[nH]nn2)c1Cl (stereo not drawn) [Example 87, N-[1-[3-chloro-5-[6-[2-chloro-5-fluoro-3-[2-(H-triazol-4-yl)ethyl]benzoyl]-2,7-dimethyl-5,7-dihydro-4H-pyrazolo[3,4-c]pyridin-3-yl]phenyl]cyclopropyl]methanesulfonamide]
13 | 3020 | C[C@@H]1c2nn(C)c(-c3cc(F)cc(F)c3)c2CCN1C(=O)c1ncn(-c2cc(Cl)cnc2O)n1 [Example 101, [1-(5-chloro-2-hydroxy-3-pyridyl)-1,2,4-triazol-3-yl]-[(7R)-3-(3,5-difluorophenyl)-2,7-dimethyl-5,7-dihydro-4H-pyrazolo[3,4-c]pyridin-6-yl]methanone]
14 | 62 | C[C@@H]1c2nn(C)c(-c3cc(Cl)cc(C4(C(N)=O)CC4)c3)c2CCN1C(=O)c1cc(F)cc(-c2c[nH]c(C#N)c2)c1Cl [Example 72, 1-[3-chloro-5-[(7R)-6-[2-chloro-3-(5-cyano-1H-pyrrol-3-yl)-5-fluoro-benzoyl]-2,7-dimethyl-5,7-dihydro-4H-pyrazolo[3,4-c]pyridin-3-yl]phenyl]cyclopropanecarboxamide]
15 | 304 | CC1c2nn(C)c(-c3cncc(C(F)(F)F)n3)c2CCN1C(=O)c1cc(F)cc(N2CC(S(N)(=O)=O)C2)c1Cl (stereo not drawn) [Example 58, 1-[2-Chloro-3-[2,7-dimethyl-3-[6-(trifluoromethyl)pyrazin-2-yl]-5,7-dihydro-4H-pyrazolo[3,4-c]pyridine-6-carbonyl]-5-fluoro-phenyl]azetidine-3-sulfonamide]
16 | 275 | C[C@H]1c2nn(C)c(-c3cc(Cl)cc(C4(S(C)(=O)=O)CC4)c3)c2CCN1C(=O)c1ncn(-c2ccc[nH]c2=O)n1 [Example 78, 3-[3-[(7S)-3-[3-chloro-5-(1-methylsulfonylcyclopropyl)phenyl]-2,7-dimethyl-5,7-dihydro-4H-pyrazolo[3,4-c]pyridine-6-carbonyl]-1,2,4-triazol-1-yl]-1H-pyridin-2-one]
17 | 4.88 | C[C@H]1c2nn(C)c(-c3cc(F)cc(F)c3)c2CCN1C(=O)c1cc(F)cc(OC[C@H]2CNC(=O)N2)c1Cl [Example 115, (4R)-4-[[2-chloro-3-[(7S)-3-(3,5-difluorophenyl)-2,7-dimethyl-5,7-dihydro-4H-pyrazolo[3,4-c]pyridine-6-carbonyl]-5-fluoro-phenoxy]methyl]imidazolidin-2-one]
18 | 4220 | C[C@H]1c2nn(C)c(-c3cncc(C(F)(F)F)n3)c2CCN1C(=O)c1ncn(-c2ccc[nH]c2=O)n1 [Example 67, 3-[3-[(7S)-2,7-dimethyl-3-[6-(trifluoromethyl)pyrazin-2-yl]-5,7-dihydro-4H-pyrazolo[3,4-c]pyridine-6-carbonyl]-1,2,4-triazol-1-yl]-1H-pyridin-2-one]
19 | 929 | C[C@H]1c2nn(C)c(-c3cc(F)cc(F)c3)c2CCN1C(=O)c1cc(F)cc(OC[C@@H]2CNC(=O)N2)c1Cl (single isomer, unassigned) [Example 114]
20 | 1070 | CC1c2nn(C)c(-c3cc(Cl)cc(S(N)(=O)=O)c3)c2CCN1C(=O)c1ncn(-c2ccc[nH]c2=O)n1 (stereo not drawn) [Example 59, 3-Chloro-5-[2,7-dimethyl-6-[1-(2-oxo-1H-pyridin-3-yl)-1,2,4-triazole-3-carbonyl]-5,7-dihydro-4H-pyrazolo[3,4-c]pyridin-3-yl]benzenesulfonamide]
21 | 5.97 | C[C@H]1c2nn(C)c(-c3cc(F)cc(F)c3)c2CCN1C(=O)c1cc(F)cc(C2=CC(Cl)C(=O)N=C2)c1Cl (stereo partly drawn) [Example 98, 3-chloro-5-[2-chloro-3-[(7S)-3-(3,5-difluorophenyl)-2,7-dimethyl-5,7-dihydro-4H-pyrazolo[3,4-c]pyridine-6-carbonyl]-5-fluoro-phenyl]-3H-pyridin-2-one]
22 | 714 | C[C@H]1c2nn(C)c(-c3cc(F)cc(F)c3)c2CCN1C(=O)c1ncnn1[C@H]1CCNC1 (single isomer, unassigned) [Example 54, [3-(3,5-Difluorophenyl)-2,7-dimethyl-5,7-dihydro-4H-pyrazolo[3,4-c]pyridin-6-yl]-(2-pyrrolidin-3-yl-1,2,4-triazol-3-yl)methanone; hydrochloride]
23 | 3 | C[C@H]1c2nn(C)c(-c3cc(F)cc(F)c3)c2CCN1C(=O)c1cc(F)cc(-c2c[nH]c(C#N)c2)c1 [Example 53, 4-[3-[(7S)-3-(3,5-Difluorophenyl)-2,7-dimethyl-5,7-dihydro-4H-pyrazolo[3,4-c]pyridine-6-carbonyl]-5-fluorophenyl]-1H-pyrrole-2-carbonitrile]
24 | 734 | C[C@@H]1c2nn(C)c(-c3cc(F)c(F)c(F)c3)c2CCN1C(=O)c1cc(F)cc(-c2c[nH]c(C#N)c2)c1Cl [Example 93, 4-[2-chloro-3-[(7R)-2,7-dimethyl-3-(3,4,5-trifluorophenyl)-5,7-dihydro-4H-pyrazolo[3,4-c]pyridine-6-carbonyl]-5-fluoro-phenyl]-1H-pyrrole-2-carbonitrile]
